# The source made the active and inactive calls.
# Legend:
# [1] = target: T1, Short transient receptor potential channel 4 (Mus musculus, UniProt Q9QUQ5); test: block of DAMGO-driven TRPC4 calcium entry – cell-based, HEK293 TRPC4/mu-opioid, Fluo-4 calcium, dose response (AID 434942); format: functional;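 note: potency of inhibitors blocking the TRPC4 calcium response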
# T1 sequence (Q9QUQ5 whole entry): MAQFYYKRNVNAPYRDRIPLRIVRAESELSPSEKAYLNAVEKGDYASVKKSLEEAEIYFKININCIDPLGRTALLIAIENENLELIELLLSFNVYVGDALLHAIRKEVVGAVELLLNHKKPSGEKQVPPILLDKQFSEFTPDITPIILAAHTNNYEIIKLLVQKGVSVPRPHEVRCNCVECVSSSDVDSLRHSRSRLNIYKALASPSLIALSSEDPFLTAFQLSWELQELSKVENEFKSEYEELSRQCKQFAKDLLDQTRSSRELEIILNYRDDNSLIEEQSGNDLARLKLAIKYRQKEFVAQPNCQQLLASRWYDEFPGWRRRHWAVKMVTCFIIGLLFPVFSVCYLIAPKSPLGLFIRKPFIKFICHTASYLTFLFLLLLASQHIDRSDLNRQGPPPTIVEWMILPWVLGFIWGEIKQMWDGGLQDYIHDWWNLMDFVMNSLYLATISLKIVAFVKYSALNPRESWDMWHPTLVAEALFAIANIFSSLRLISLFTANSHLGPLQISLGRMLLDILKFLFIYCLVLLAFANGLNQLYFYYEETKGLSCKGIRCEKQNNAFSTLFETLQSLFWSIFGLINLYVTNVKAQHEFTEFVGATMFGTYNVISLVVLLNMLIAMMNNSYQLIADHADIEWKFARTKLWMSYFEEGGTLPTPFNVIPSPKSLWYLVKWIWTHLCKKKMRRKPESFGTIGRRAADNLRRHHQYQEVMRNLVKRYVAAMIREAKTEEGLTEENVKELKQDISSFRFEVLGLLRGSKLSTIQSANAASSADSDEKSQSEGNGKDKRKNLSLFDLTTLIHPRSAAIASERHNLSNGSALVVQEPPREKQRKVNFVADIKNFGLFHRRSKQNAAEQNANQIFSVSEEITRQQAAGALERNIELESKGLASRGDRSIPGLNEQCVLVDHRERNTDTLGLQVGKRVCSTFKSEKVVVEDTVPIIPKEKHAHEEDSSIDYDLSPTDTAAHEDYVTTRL
# P388/ADR = test: cells; format: functional; conditions: Mus musculus
# SN12K1 = test: cells; format: functional; conditions: Homo sapiens
# P388 = test: cells; format: functional; conditions: Mus musculus
# [2] = Trypanosoma cruzi growth suppression in host cells – NIH3T3 host cells, beta-gal luminescence, confirmation (AID 2044); format: functional, cell-based;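 note: intracellular parasites grown in NIH/3T3 mouse fibroblasts as host cells; luminescent beta-galactosidase reporter signal from transgenic T. cruzi replicating inside host cells; inhibitors lower the luminescence signal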
# [3] = NIH3T3 cell viability loss – ATP luminescence, mouse fibroblasts, counter-screen, dose response (AID 2010); format: functional, cell-based;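 note: cells exposed to compound for about 90 hours before reading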
# [4] = target: T1, Short transient receptor potential channel 4; test: calcium entry via TRPC4 opening agents – cell-based, HEK293 TRPC4/mu-opioid, Fluo-4 calcium, dose response (AID 434937); format: functional
# [5] = Luminescence Cell-Based Dose Confirmation HTS to Identify Activators of 5'UTR Stem-Loop Driven Alpha-Synuclein mRNA Translation in H4 Neuroglioblastoma Cells. [Related pubchem assays: 1829 (Project Summary), 1814 (Primary HTS)]; format: functional
# [6] = Luminescence Cell-Based Dose Response HTS to Identify Activators of Luciferase Translation or Activity in H4 […] Cells. [Related pubchem assays: 1829 (Project Summary), 1814 (Primary HTS)]; format: functional
# H4 = test: Luminescence Cell-Based Dose Response HTS to Identify Activators of 5'UTR Stem-Loop Driven Prion Protein mRNA Translation in H4 Neuroglioblastoma Cells. [Related pubchem assays: 1829 (Project Summary), 1814 (Primary HTS)]; format: functional; conditions: Homo sapiens
# HeLa = test: ATP-based viability loss in HeLa cells – cell-based, CellTiter-Glo luminescence, cherry-pick samples, cytotoxicity control for MITF activator project, dose response (AID 540259); format: functional; conditions: Homo sapiens
# [7] = blockers of HIV-1 envelope-mediated cell-cell fusion – cherry-pick, dose response (AID 652057); format: functional, cell-based
# [8] = HIV-1 AD8 envelope cell-cell fusion blockers – cherry-pick, dose response (AID 652062); format: functional, cell-based;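 note: luciferase signal from cell-cell fusion driven by HIV-1 clade B AD8 Env; potency is for inhibitors of fusion seen as a drop in luminescence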
# Paired box protein Pax-8 = Paired box protein Pax-8 (Homo sapiens, UniProt Q06710); test: PAX8 transcriptional activity inhibition in RMG-I – RMG-I cells, luciferase, cherry-pick, dose response (AID 687027); format: functional, cell-based;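 note: luciferase reporter driven by Pax8 target thyroperoxidase promoter measured by SteadyGlo luminescence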
# [9] = target: T2, Microphthalmia-associated transcription factor (Homo sapiens, UniProt O75030); test: reducers of TRPM1 reporter luminescence, concentration series – cell-based, SK-MEL-5, cherry-picked, set 3, MITF inhibitor project, dose response (AID 493073); format: functional;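 note: SK-MEL-5 melanoma cells with luciferase driven by the MITF target TRPM1 promoter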
# T2 sequence (O75030 whole entry): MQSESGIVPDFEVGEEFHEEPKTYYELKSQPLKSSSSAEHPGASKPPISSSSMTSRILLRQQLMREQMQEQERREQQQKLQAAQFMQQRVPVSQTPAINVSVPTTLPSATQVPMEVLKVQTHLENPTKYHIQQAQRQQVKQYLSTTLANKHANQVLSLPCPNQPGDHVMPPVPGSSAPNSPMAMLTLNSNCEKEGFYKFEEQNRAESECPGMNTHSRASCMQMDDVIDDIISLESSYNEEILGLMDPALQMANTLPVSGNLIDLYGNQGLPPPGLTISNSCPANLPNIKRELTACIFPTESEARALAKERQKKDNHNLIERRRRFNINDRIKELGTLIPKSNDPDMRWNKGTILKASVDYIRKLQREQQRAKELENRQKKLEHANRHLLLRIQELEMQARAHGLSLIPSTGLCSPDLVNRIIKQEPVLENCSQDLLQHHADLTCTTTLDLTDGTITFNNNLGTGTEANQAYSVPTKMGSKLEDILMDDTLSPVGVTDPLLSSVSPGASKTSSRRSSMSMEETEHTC
# [10] = target: T3, Corticotropin-releasing factor receptor 2/Corticotropin-releasing factor-binding protein (Homo sapiens, UniProt P24387+Q13324); test: activators of CRF receptor 2 with binding protein – uHTS hits, confirmation (AID 602473); format: functional; conditions: read-out: EC50_Mean
# T3 sequence (Q13324 whole entry): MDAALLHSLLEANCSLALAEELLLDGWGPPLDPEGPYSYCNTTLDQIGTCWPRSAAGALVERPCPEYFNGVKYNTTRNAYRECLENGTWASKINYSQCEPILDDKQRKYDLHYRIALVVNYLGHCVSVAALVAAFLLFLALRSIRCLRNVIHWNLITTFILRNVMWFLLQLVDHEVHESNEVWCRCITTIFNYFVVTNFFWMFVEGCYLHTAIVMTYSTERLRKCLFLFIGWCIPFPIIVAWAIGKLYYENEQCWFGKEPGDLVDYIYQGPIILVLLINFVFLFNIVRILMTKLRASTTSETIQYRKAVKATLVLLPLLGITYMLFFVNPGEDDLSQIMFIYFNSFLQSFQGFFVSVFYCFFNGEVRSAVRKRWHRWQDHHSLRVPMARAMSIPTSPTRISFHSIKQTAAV
# T3 sequence (P24387 whole entry): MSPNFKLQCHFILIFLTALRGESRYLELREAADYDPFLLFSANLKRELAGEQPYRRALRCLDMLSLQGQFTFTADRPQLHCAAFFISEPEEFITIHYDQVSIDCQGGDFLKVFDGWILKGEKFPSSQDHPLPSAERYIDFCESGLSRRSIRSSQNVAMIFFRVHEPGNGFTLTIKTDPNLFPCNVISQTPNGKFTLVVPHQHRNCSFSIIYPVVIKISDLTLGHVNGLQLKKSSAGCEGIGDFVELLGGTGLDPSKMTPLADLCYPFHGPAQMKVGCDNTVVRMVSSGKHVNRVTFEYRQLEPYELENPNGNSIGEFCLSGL
# Paired box protein Pax-8, sequence (Q06710 whole entry): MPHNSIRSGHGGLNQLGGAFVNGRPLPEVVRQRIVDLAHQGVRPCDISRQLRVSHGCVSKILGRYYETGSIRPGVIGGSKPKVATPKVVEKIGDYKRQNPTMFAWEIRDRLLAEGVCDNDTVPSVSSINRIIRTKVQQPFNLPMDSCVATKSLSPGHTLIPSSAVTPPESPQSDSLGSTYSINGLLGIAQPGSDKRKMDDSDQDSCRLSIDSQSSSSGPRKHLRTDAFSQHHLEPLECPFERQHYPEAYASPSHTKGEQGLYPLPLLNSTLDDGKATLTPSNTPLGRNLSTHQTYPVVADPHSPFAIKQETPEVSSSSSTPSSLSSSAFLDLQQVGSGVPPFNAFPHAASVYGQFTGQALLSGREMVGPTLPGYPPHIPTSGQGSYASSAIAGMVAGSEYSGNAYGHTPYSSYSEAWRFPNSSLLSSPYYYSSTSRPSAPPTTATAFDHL
smiles,measurement,setting,value
CC(C)=CCCC(C)CN1CCC(n2nccc2NC(=O)C2CCCC2)CC1 (stereo not given),EC50,[1],5.31 µM (active)
O=P1(N(CCCl)CCCl)NCCCO1 (stereo not given) [CYCLOPHOSPHAMIDE ANHYDROUS],GI50,P388/ADR,196 µM (inactive)
same,GI50,SN12K1,> 245 µM (inactive)
same,GI50,P388,229 µM (inactive)
CC(NCc1cc(Br)ccc1OCC(=O)NCc1ccccc1)c1ccccc1 (stereo not given),EC50,[2],2.53 µM (active)
same,EC50,[3],> 60 µM (not active)
same,EC50,[1],1.06 µM (active)
same,EC50,[4],7.5 µM (active)
CC(Oc1ccc(Cl)cc1Cl)c1nc(-c2ccccn2)no1 (stereo not given),EC50,[1],1.88 µM (active)
Oc1nc2cc3c(cc2cc1CN(Cc1nnnn1C1CCCC1)C1CCCC1)OCCO3,EC50,[5],> 120 µM (not active)
same,EC50,[6],> 120 µM (not active)
same,EC50,H4,59.4 µM (active)
Cc1cccc(-n2ncc3c(N4CC(C)CC(C)C4)ncnc32)c1 (stereo not given),AC50,HeLa,163 µM (active)
O=C(NC1=NCCS1)C12CC3CC(C1)CC(C(=O)NC1=NCCS1)(C3)C2,EC50,[5],> 120 µM (not active)
same,EC50,[6],13.6 µM (inconclusive)
same,EC50,H4,9.63 µM (active)
Cc1ccc(S(=O)(=O)N(C)C[C@@H]2Oc3ccc(NC(=O)Cc4cn(C)c5ccccc45)cc3CC(=O)N([C@H](C)CO)C[C@@H]2C)cc1,AC50,[7],1.09 µM (active)
same,AC50,[8],14.5 µM (active)
COc1ccc(C(CNC(=O)c2cccc(NS(=O)(=O)c3ccc(Br)cc3)c2)N(C)C)cc1 (stereo not given),EC50,[4],5.31 µM (active)
COC(=O)[C@]12CCCCC=C1N(Cc1cccc3ccccc13)C(=O)[C@H](CC(=O)N1CCN(C(=O)c3ccco3)CC1)C2,AC50,Paired box protein Pax-8,1.59 µM (active)
Cc1ccc(C#CS(=O)(=O)C(F)(F)F)cc1,GI50,P388/ADR,> 100 µM (inactive)
same,GI50,SN12K1,> 100 µM (inactive)
same,GI50,P388,90.6 µM (inactive)
COc1cccc2cc(CC(=O)c3ccc(C)cc3C)c(=O)oc12,EC50,[5],43.3 µM (active)
same,EC50,[6],43.4 µM (active)
same,EC50,H4,11 µM (active)
same,AC50,HeLa,83.9 µM (active)
COc1cccc(CNC(=O)CN2C(=O)CSc3ccc(S(=O)(=O)N4CCCCC4)cc32)c1,EC50,[5],> 120 µM (not active)
same,EC50,[6],> 120 µM (not active)
same,EC50,H4,> 120 µM (not active)
OCCNc1nc(NCc2ccccc2)c2ccccc2n1,EC50,[1],3.35 µM (active)
Cc1ccc(NC(=O)CN2CCCC2c2cccn2C)c(Br)c1 (stereo not given),AC50,HeLa,52.2 µM (active)
CCOC(=O)c1c[nH]c2cc3c(cc2c1=O)CCS3(=O)=O.CCOC(=O)c1c[nH]c2ccc3c(c2c1=O)S(=O)(=O)CC3,GI50,P388/ADR,> 100 µM (inactive)
same,GI50,SN12K1,> 100 µM (inactive)
same,GI50,P388,> 100 µM (inactive)
CCCc1ccc(-c2cc(C(=O)NCCc3ccc(S(N)(=O)=O)cc3)c3ccccc3n2)cc1,AC50,HeLa,37.5 µM (active)
COc1ccc(C)cc1Nc1nc(N)c2cc(OC)c(OC)cc2n1,AC50,[9],14.2 µM (active)
COC1C(O)C(n2ncc3c(SC)nc(SC)nc32)OC1C(O)CO (stereo not given),GI50,P388/ADR,> 100 µM (inactive)
same,GI50,SN12K1,> 37.2 µM (inactive)
same,GI50,P388,98.2 µM (inactive)
Nc1c(-c2ccc(Cl)cc2)cnn1-c1ccccc1,AC50,HeLa,64.2 µM (active)
Oc1c(Br)cc(Br)cc1/C=N/c1ccc2[nH]ncc2c1,EC50,[1],4.22 µM (active)
COCCN(C(=O)COC(=O)/C=C/c1ccccc1Cl)c1c(N)n(Cc2ccccc2)c(=O)[nH]c1=O,EC50,[5],26.2 µM (active)
same,EC50,[6],9.52 µM (active)
same,EC50,H4,> 120 µM (not active)
COc1cccc(/C=C/C(=O)OC(C)C(=O)Nc2c(C)n(C)n(-c3ccccc3)c2=O)c1 (stereo not given),EC50,[5],10.5 µM (active)
same,EC50,[6],49.1 µM (active)
same,EC50,H4,> 120 µM (not active)
O=C(O)c1ccc(Nc2c3ccccc3nc3ccccc23)cc1,GI50,P388/ADR,22.4 µM (inactive)
same,GI50,SN12K1,60.5 µM (inactive)
same,GI50,P388,3.92 µM (inactive)
O=C(NC(=S)NCc1nc2ccccc2[nH]1)c1ccccc1F,EC50,[5],70.7 µM (active)
same,EC50,[6],25.6 µM (active)
same,EC50,H4,9.16 µM (active)
NC(=O)c1nsc(C(=O)N(Cc2ccc(F)cc2)C(C(=O)NCC2CCCO2)c2ccc(O)cc2)c1N (stereo not given),EC50,[1],2.37 µM (active)
CCOc1ccc2ncc(C(=O)c3ccc(OC)cc3)c(N3CCN(CC)CC3)c2c1,EC50,[4],5.96 µM (active)
CCCCNCc1cc(Cl)c(OCCC)c(OCC)c1,EC50,[1],2.37 µM (active)
Cc1cc2cc(C#N)c(NCCN=C(S)NCCCN3CCOCC3)nc2cc1C,EC50,[1],5.31 µM (active)
Fc1ccc(-n2cc(CNCCc3ccncc3)c(-c3ccccc3Cl)n2)cc1,EC50,[1],3.35 µM (active)
CCCCN(CCCC)C(=N)Nc1nc(C)cc(C)n1,EC50,[1],3.76 µM (active)
c1ccc2c(c1)NCc1cc3ccccc3nc1O2,GI50,P388/ADR,74.1 µM (inactive)
same,GI50,SN12K1,> 100 µM (inactive)
same,GI50,P388,> 100 µM (inactive)
O=C1NC(=O)C(CCO)(c2ccccc2)C(=O)N1,GI50,SN12K1,> 100 µM (inactive)
same,GI50,P388,> 100 µM (inactive)
CCn1c(COc2ccccc2C)nc2ccccc21,AC50,HeLa,81 µM (active)
same,EC50,[10],4.28 µM (active)
O=C(c1ccc(F)cc1)c1ccc(N2CCCCC2)cc1,AC50,HeLa,57.7 µM (active)
CSCCC(NS(=O)(=O)c1ccc2c(c1)c(=O)n(C)c(=O)n2C)C(=O)NC1CCN(Cc2ccccc2)CC1 (stereo not given),EC50,[4],3.76 µM (active)
CNCCOc1ccc(Cl)c(Cl)c1,EC50,[4],0.944 µM (active)
